Type: physicochemical
Settings: 25° C., listed as S2
Text: Preferably, the anhydrates or ansolvates according to the invention and especially the crystalline form A1 can be characterised, alternatively or additionally, by dynamic vapour sorption experiments. The results can be obtained by standard techniques as described in Rolf Hilfiker, ‘Polymorphism in the Pharmaceutical Industry’, Wiley-VCH. Weinheim 2006 (Chapter 9: Water Vapour Sorption, and references therein). […] Eur. criteria.
Preferably, the tetrasolvates according to the invention, more preferably the tetrahydrates according to the invention and especially the crystalline form S3 can be characterised, alternatively or additionally, by dynamic vapour sorption experiments. The results can be obtained by standard techniques as described in Rolf Hilfiker, ‘Polymorphism in the Pharmaceutical Industry’, Wiley-VCH. Weinheim 2006 (Chapter 9: Water Vapour Sorption, and references therein).
Dynamic Vapor Sorption measurements are preferably obtained on a SMS DVS Intrinsic system. The results are preferably obtained by standard techniques as described by Rolf Hilfiker “Polymorphism in the Pharmaceutical Industry” Wiley-VCH Weinheim 2006 (Chapter 9: Water Vapour Sorption, and references therein.) Approx. 2-10 mg of samples are preferably weighed into an Aluminium 100 μL pan and placed in the sample incubator of the DVS instrument with microbalance. A nitrogen overall flow rate of 200 mL/min (combined dry and humid stream) is preferably used for humidification. Water vapor sorption isotherms are preferably acquired at 25° C. in the range 0% relative humidity to 98% relative humidity mostly with 10% relative humidity steps. For all relative humidity steps, an equilibrium condition of dm/dt≦0.0005 wt %/min are preferably used, with a minimum relative humidity step time of 10 minutes and a maximum relative humidity step time of 360 minutes which is preferably used as a timeout if the dm/dt criterai mentioned above is not been reached.
A SMS DVS I system is used for the dynamic vapour experiments regarding crystalline form S3. The results have been obtained by standard techniques as described in Rolf Hilfiker, ‘Polymorphism in the Pharmaceutical Industry’, Wiley-VCH. Weinheim 2006 (Chapter 9: Water Vapour Sorption, and references therein). […] During the water adsorption cycle there is shown an assembly of water molecules (ca. 10 wt%) in the lattice at elevated rh. In the second desorption cycle there is a loss of this amount of water.
(§1) A SMS DVS Intrinsic is used for the dynamic vapour experiments. The results are obtained by standard techniques as described in Rolf Hilfiker, ‘Polymorphism in the Pharmaceutical Industry’, Wiley-VCH. Weinheim 2006 (Chapter 9: Water Vapour Sorption, and references therein). […] Upon water vapour adsorption, an assembly of water molecules in the lattice is observed, with a maximum weight gain of approx. 8 wt % at elevated rh. In the second desorption cycle a total mass loss of approx. 9.9 wt % is observed. For a Cilengitide Dihydrate Di-Methanolate, the calculated Methanol content equals 9.3 wt %.
as §1, with “6.4” for “8”, “9.2” for “9.9”, “Di-Ethanolate,” for “Di-Methanolate,”, “Ethanol” for “Methanol”, “12.5” for “9.3”

Maximum weight gain upon water vapour adsorption (elevated rh): approx. 6.4 wt %
Mass loss in the first desorption cycle (water vapour sorption): approx. 6.5 wt %
Total mass loss in the second desorption cycle (water vapour sorption): approx. 9.2 wt %
Substance: cyclo-(Arg-Gly-Asp-DPhe-NMe-Val) [crystalline form S2]
